Source: publication PMC12040169 (PLOS Biology, 2025)

Test: in vitro
Conditions: human, hela cells, % viability

| Compound | viability at 28.5 h, 10 µM | viability at 28.5 h, 10 µM (bulk resorufin, single well) |
| --- | --- | --- |
| O=C(O)C1C2CCC(O2)C1C(=O)N1CCN(Cc2ccc(Cl)cc2)CC1 (stereo not drawn) [CBK286943] | 97.5% | – |
| COc1ccc(C(C)C)cc1-c1nccnc1NCCc1c[nH]c2ccccc12 [CBK036650] | 109% | – |
| O=C(CCC(=O)c1ccc(Cl)cc1)OCC(=O)c1cccc(I)c1 [CBK264760] | 89.9% | – |
| Cc1cc(C)n(C2CN(CC(=O)NCc3ccccn3)C2)n1 [CBK306238] | 88.3% | – |
| O=C(NC1Cc2ccccc2C1)c1nccc2ccccc12 [CBK200356] | 97% | – |
| COc1ccc(C)cc1S(=O)(=O)N(CCO)c1cc(N2CCNCC2)c2occc2c1 [CBK067894C] | 86% | – |
| COc1cc(CNC(=O)c2cnoc2-c2ccc(Br)cc2)cc(OC)c1OC [CBK154893] | 110% | – |
| CCCCOC(=O)c1c(N)n(-c2ccc(C(=O)O)cc2)c2nc3ccccc3nc12 [CBK265046] | 94.6% | – |
| CN(C)CCNC(=O)c1cncc(-c2ccc(C(=O)N3CCOCC3)cc2)c1 [CBK158619] | 95.6% | – |
| Cc1ccc(S(=O)(=O)NC2(C(F)(F)F)NC(=O)N(c3ccc(F)c(Cl)c3)C2=O)cc1 (stereo not drawn) [CBK267473] | 97.2% | – |
| O=C(CC1NC(=O)NC1=O)Nc1ccc(C(=O)O)cc1 (stereo not drawn) [CBK267355] | 99.1% | – |
| O=C(COc1ccc2c(c1)OCO2)NCc1ccccn1 [CBK269983] | 95.3% | – |
| O=C(c1cccc(NS(=O)(=O)c2cc(F)c(Br)cc2F)c1)N1CCOCC1 [CBK039007] | 86.7% | – |
| O=C(Nc1ccc(N2CCNCC2)c2ccccc12)c1ccccc1 [CBK028412T] | 92.8% | – |
| COc1ccc(CN2CC[C@H]3[C@@H](C2)[C@H](c2ccsc2)CN3C(=O)c2ccccc2)cc1 [CBK285614] | 97.6% | – |
| Cc1c(OCc2ccc(C(=O)O)cc2)ccc2c(-c3ccccc3)cc(=O)oc12 [CBK296080] | 117% | – |
| O=C(CN1CCn2ccnc2C1)N(Cc1ccccc1F)C1CC1 [CBK303995] | 89.6% | – |
| OC(CN1CCC(O)(c2ccc(F)cc2)CC1)c1ccc(-c2ccccc2)cc1 (stereo not drawn) [CBK286328] | 90% | – |
| O=C(O)c1cccc(NS(=O)(=O)c2c(Cl)cc(C(F)(F)F)cc2Cl)c1 [CBK155721] | 96.3% | – |
| COCCn1cc(C(=O)N(CC(N)=O)C2CCCC2)c2ccccc21 [CBK305802] | – | 84.1% |
| COc1cc(/C=N/NC(=O)c2ccc([N+](=O)[O-])cc2)ccc1OC(C)=O [CBK261348] | 112% | – |
| COc1ccc(-c2nc(-c3ccncc3)ncc2C(=O)NC2CCCCC2)cc1 [CBK291111] | 95.4% | – |

| Compound | viability at 28.5 h, 10 µM | viability at 28.5 h, 10 µM (bulk resorufin, single well) |
| --- | --- | --- |
| CCN(CC)C(=O)CN1C(=O)N2CCCN=C2c2ccc(Cl)cc21 [CBK284386] | 91.7% | – |
| O=C(CSc1nnc(-c2ccncc2)n1-c1ccccc1)N/N=C/c1c[nH]c2ccc(Br)cc12 [CBK262816] | 91.5% | – |
| Cc1ccc(C(=O)C2(O)CCN(CCCC(c3ccc(F)cc3)c3ccc(F)cc3)CC2)cc1 [CBK025221C] | 90.6% | – |
| Cc1cc(C)n2c(SCC(C)(C)NS(=O)(=O)c3ccccc3)nnc2n1 [CBK268369] | 111% | – |
| COC(=O)CCc1ccc(S(=O)(=O)N2CCN(Cc3cc(C)c(O)c(C)c3)CC2)cc1 [CBK062814] | 113% | – |
| Cc1[nH]c(=O)[nH]c(=O)c1CC(=O)N1CCc2ncc(Cl)cc2C1 [CBK286302] | 101% | – |
| O=C(O)CCC(=O)N1N=C2C(=Cc3ccco3)CCCC2C1c1ccco1 (stereo not drawn) [CBK296069] | 97.9% | – |
| CCOc1ccc(N2C(=O)CC(N3CCN(c4ccc(C(=O)c5ccncc5)cc4)CC3)C2=O)cc1 (stereo not drawn) [CBK269124] | 86.5% | – |
| CCc1ccc(CNC(=O)Cn2cc(-c3ccc(CN4CCC(CO)CC4)cc3)nn2)cc1 [CBK167551] | 105% | – |
| O=C(CN1CCCCCC1)N1CCCC1c1n[nH]cc1-c1cccc(Cl)c1 (stereo not drawn) [CBK283084] | 94.7% | – |
| CC(C)(C)c1cc(CC2(NCc3ccco3)COC2)no1 [CBK289642] | 108% | – |
| Nc1ncc(-c2ccoc2)nc1-c1ccc(F)c(Cl)c1 [CBK063982] | 93.9% | – |
| CC(=O)Nc1ccc(C2=NC3SC(c4ccc(NC(C)=O)cc4)=NC3S2)cc1 (stereo not drawn) [CBK019799] | 103% | – |
| OCCN1CCN(C(c2ccccc2)c2sc3ncnn3c2O)CC1 (stereo not drawn) [CBK287611] | 82.5% | – |
| O=C(CSCc1ccccc1Cl)Nc1ccc(-c2nnc(-c3ccccc3)o2)cc1 [CBK268656] | 111% | – |
| Cc1nnsc1C(=O)N1CCN(c2cc(C(F)(F)F)ccn2)CC1 [CBK008467] | 86.4% | – |
| COc1ccc(-c2cc3ccc(OC(C)C(=O)O)cc3oc2=O)cc1 (stereo not drawn) [CBK267947] | 101% | – |
| COc1ccc(C)cc1C1(CNC(=O)N2CCC(C)(O)C2)CCOCC1 (stereo not drawn) [CBK305452] | 102% | – |
| NC1=C(c2nc3ccccc3s2)C(=O)CN1CCCN1CCOCC1 [CBK265925] | 109% | – |
| COc1ccc2cc(C(=O)NCCCc3ccccn3)n(C)c2c1 [CBK282545] | 103% | – |
| Nc1nonc1C(=O)NCCNc1ccc([N+](=O)[O-])cc1 [CBK262577] | 104% | – |
| O=C(CSc1nnc(-c2ccncc2)n1C1CCCCC1)Nc1ncc2c(n1)CC(c1ccccc1)CC2=O (stereo not drawn) [CBK266177] | 94.3% | – |

| Compound | viability at 28.5 h, 10 µM | viability at 28.5 h, 10 µM (bulk resorufin, single well) |
| --- | --- | --- |
| COc1cc(CNC2CCCc3c2cnn3C)cc(OC)c1 (stereo not drawn) [CBK304306C] | 82.4% | – |
| CC(CCCC(C)(C)O)CC1OCCC(C)O1 (stereo not drawn) [CBK019986] | 115% | – |
| CC(C)(CO)CNc1nc(-c2ccc(F)cc2)cnc1N [CBK063589] | 95.7% | – |
| CCNC(=O)N1CCc2c([nH]c3ccc(OC)cc23)C12CCN(CCOc1ccccc1)C2 (stereo not drawn) [CBK061690] | 93% | – |
| O=C(CCn1cc(Br)ccc1=O)NC1CCN(Cc2ccccc2)CC1 [CBK305778] | 101% | – |
| COc1ccc(-c2nc(O)cc(C(F)(F)F)n2)cc1 [CBK003515] | 86.3% | – |
| COc1cc(C=CC(=O)N(C)c2ccccc2C(=O)O)cc(OC)c1OC [CBK296136] | 93.1% | – |
| Cc1ccc(S(=O)(=O)N(Cc2c(F)cccc2F)C2CCNCC2)cc1 [CBK163927T] | 89.9% | – |
| CNc1nc(NCCc2cnc(=O)n(C)c2O)cc(C2CCOC2)n1 (stereo not drawn) [CBK307156] | 105% | – |
| COc1ccc(C(=O)N2CCN(Cc3ccccc3)CC2)c(OC)n1 [CBK200169] | 99.2% | – |
| COc1ccccc1N1CCN(C2CCN(S(=O)(=O)c3ccc(NC(C)=O)cc3)CC2)CC1 [CBK264688] | 93.7% | – |
| O=C(CC1S/C(=N/N=C/c2ccccc2C(=O)O)NC1=O)Nc1ccccc1 (stereo not drawn) [CBK264515] | 99.7% | – |
| CNc1nc(C(C)(C)C)cs1 [CBK025373] | 88.2% | – |
| CN(CCN(C)C(=O)c1cc2sccc2[nH]1)CC(F)F [CBK306014] | 103% | – |
| CCOc1ccc(S(=O)(=O)NCc2ccncc2)cc1NC(C)=O [CBK269527] | 88% | – |
| Cc1ccc(SCc2nc3ncccn3c2Br)cc1 [CBK027744] | 85.2% | – |
| COc1ccc(Nc2nc(-c3cc(C(C)C)ccc3OC)cn3ccnc23)cn1 [CBK066354] | 84.3% | – |
| Cc1sc2ncn(CCC(=O)O)c(=O)c2c1C [CBK288191] | 115% | – |
| CC1CCN(C(=O)c2cccc(Cn3cc(Br)cn3)c2)CC1 [CBK058482] | 91.8% | – |
| Cc1ccc(Cl)c(OC(C)C(=O)N2CCOC(CC(=O)O)C2)c1 (stereo not drawn) [CBK304769] | 93% | – |
| CCOc1cccc(-c2cn3ccnc3c(Nc3ccc(Cl)cc3)n2)c1 [CBK066505] | 92.1% | – |
| Nc1ncnc2c1C(c1ccc(Cl)cc1)c1c(ccc3ccccc13)O2 (stereo not drawn) [CBK263938] | 101% | – |

| Compound | viability at 28.5 h, 10 µM | viability at 28.5 h, 10 µM (bulk resorufin, single well) |
| --- | --- | --- |
| CCNc1nc(-c2ccc(Oc3ccccc3)cc2)cn2ccnc12 [CBK066467] | 94.6% | – |
| O=C(O)C1(Cc2cccc(-c3cccs3)c2)CCCNC1 (stereo not drawn) [CBK281688] | 90.5% | – |
| O=C1Nc2ccc(-c3cccc(C(F)(F)F)c3)cc2C(=O)N2CCN(C(=O)C3CC3)C[C@H]12 [CBK289585] | 79.4% | – |
| CCc1cnc(CN(C)C2CCN(CC(=O)NCc3ccco3)C2)o1 (stereo not drawn) [CBK306137] | 94.8% | – |
| CC(C)c1ccc(C(C)NC(=O)c2ccc(=O)n(CC(=O)NC3CCCC3)c2)cc1 (stereo not drawn) [CBK286038] | 97.4% | – |
| O=C(NCc1ccco1)NC(=O)c1ccc(Cl)cc1 [CBK269461] | 95.8% | – |
| CN1CCC(N(C)C(=O)NCCCN2CCCC2=O)C1 (stereo not drawn) [CBK156021] | 92.3% | – |
| O=C(NCc1cccnc1)N1CCN(c2ccccc2)CC1 [CBK155178] | 98.2% | – |
| Cn1ncc2c(=O)n(Cc3noc(-c4ccco4)n3)cnc21 [CBK305053] | 97.1% | – |
| NC(=O)CCCCn1c2c(c3cccc(C(=O)O)c31)CCCCC2 [CBK034088] | 104% | – |
| CS(=O)(=O)c1ccc2nc(Nc3nc4c(F)cccc4s3)sc2c1 [CBK287478] | 101% | – |
| CCn1c2ccccc2c2cc(NC(=O)CC(C)CC(=O)O)ccc21 (stereo not drawn) [CBK300031] | 103% | – |
| O=C(Nc1ccc2c(c1)OCO2)c1ccc(-c2ccccc2)nc1NCCc1ccccn1 [CBK076574] | 102% | – |
| O=C(c1c(F)cccc1F)N1CCC(O)(c2cccnc2F)CC1 [CBK284359] | 97.7% | – |
| CC(C)CCc1c(O)nc(SCCN2CCOCC2)n(-c2ccccc2)c1=O [CBK263363C] | 85.5% | – |
| Cc1ccnc(N2C(=O)c3ccc(C(=O)c4ccc5c(c4)C(=O)N(c4cc(C)ccn4)C5=O)cc3C2=O)c1 [CBK263041] | 93.4% | – |
| Cn1c2ccccc2n2c(SCc3nc4ccc([N+](=O)[O-])cc4[nH]3)nnc12 [CBK266853] | 88.6% | – |
| CCOC(=O)c1cnc(SCc2nc(N)nc(Nc3ccc(C)cc3)n2)nc1N [CBK266292] | 115% | – |
| O=S(=O)(c1ccc(-n2cnc(Cl)c2Cl)cc1)N1CCCN(Cc2ccc3cccc(O)c3n2)CC1 [CBK063088] | 92% | – |
| COc1cc(Br)cc(CN2CCN(Cc3ccccc3)CC2)c1O [CBK261880] | – | 108% |
| O=C(O)/C=C/c1cccc(/C=C/C(=O)O)c1 [CBK261650] | 89.9% | – |
